How the values were obtained:
[1] = Drug excretion in F344/DuCrlCrlj rat bile treated with [14C]rivoglitazone at 1 mg/kg, po administered via gavage measured during 0 to 48 hrs by radio-HPLC analysis; format: ADME, organism-based; set-up: dose 1 mg/kg, dosed compound name [14C]Rivoglitazone, route oral; conditions: in vivo
[2] = Drug excretion in F344/DuCrlCrlj rat urine treated with [14C]rivoglitazone at 1 mg/kg, po administered via gavage measured during 0 to 48 hrs by radio-HPLC analysis; format: ADME, organism-based; set-up: dose 1 mg/kg, dosed compound name [14C]Rivoglitazone, route oral; conditions: in vivo
Rhesus monkey [3] = assay: Drug level in monkey plasma treated with [14C]rivoglitazone assessed as ratio of molar basis AUC (0 to t) at 1 mg/kg, po administered via gavage by LC-MS/MS analysis; format: ADME, organism-based, Macaca mulatta; set-up: dose 1 mg/kg, dosed compound name [14C]Rivoglitazone, route oral; conditions: in vivo
Rattus norvegicus [4] = assay: Drug level in F344/DuCrlCrlj rat plasma treated with [14C]rivoglitazone assessed as ratio of molar basis AUC (0 to t) at 1 mg/kg, po administered via gavage by LC-MS/MS analysis; format: ADME, organism-based; set-up: dose 1 mg/kg, dosed compound name [14C]Rivoglitazone, route oral; conditions: in vivo
[5] = Drug excretion in F344/DuCrlCrlj rat urine/feces treated with [14C]rivoglitazone at 1 mg/kg, po administered via gavage measured during 0 to 48 hrs by radio-HPLC analysis; format: ADME, organism-based; set-up: dose 1 mg/kg, dosed compound name [14C]Rivoglitazone, route oral; conditions: in vivo
[6] = Drug excretion in F344/DuCrlCrlj rat urine/bile treated with [14C]rivoglitazone at 1 mg/kg, po administered via gavage measured during 0 to 48 hrs by radio-HPLC analysis; format: ADME, organism-based; set-up: dose 1 mg/kg, dosed compound name [14C]Rivoglitazone, route oral; conditions: in vivo
Rattus norvegicus [7] = assay: Drug level in F344/DuCrlCrlj rat plasma treated with [14C]rivoglitazone at 1 to 5 mg/kg, po administered as single dose via gavage by LC-MS/MS analysis; format: ADME, organism-based; set-up: dose 1-5 mg/kg, dosed compound name [14C]Rivoglitazone, route oral; conditions: in vivo
[8] = Drug excretion in F344/DuCrlCrlj rat feces treated with [14C]rivoglitazone at 1 mg/kg, po administered via gavage measured during 0 to 48 hrs by radio-HPLC analysis; format: ADME, organism-based; set-up: dose 1 mg/kg, dosed compound name [14C]Rivoglitazone, route oral; conditions: in vivo
[9] = Retention time of the compound by LC-MS/MS analysis; format: physicochemical; set-up: dosed compound name [14C]Rivoglitazone
[10] = Drug excretion in bile duct-cannulated rat urine at 0.5 mg/kg, iv administered via tail vein measured during 0 to 48 hrs by liquid scintillation counting; format: ADME, organism-based; set-up: dose 0.5 mg/kg, dosed compound name [14C]Rivoglitazone, route intravenous; conditions: in vivo
[11] = Drug excretion in F344/DuCrlCrlj rat feces at 1 mg/kg, iv administered via tail vein measured during 0 to 48 hrs by liquid scintillation counting; format: ADME, organism-based; set-up: dose 1 mg/kg, dosed compound name [14C]Rivoglitazone, route intravenous; conditions: in vivo
[12] = Drug excretion in bile duct-cannulated rat bile at 0.5 mg/kg, iv administered via tail vein measured during 0 to 48 hrs by liquid scintillation counting; format: ADME, organism-based; set-up: dose 0.5 mg/kg, dosed compound name [14C]Rivoglitazone, route intravenous; conditions: in vivo
Rhesus monkey [13] = assay: Total drug excretion in monkey at 1 mg/kg, iv administered via tail vein measured during 0 to 48 hrs by liquid scintillation counting; format: ADME, organism-based, Macaca mulatta; set-up: dose 1 mg/kg, dosed compound name [14C]Rivoglitazone, route intravenous; conditions: in vivo
Rhesus monkey [14] = assay: Drug excretion in monkey cage wash at 1 mg/kg, iv administered […] measured during 0 to 168 hrs by liquid scintillation counting; format: ADME, organism-based, Macaca mulatta; set-up: dose 1 mg/kg, dosed compound name [14C]Rivoglitazone, route intravenous; conditions: in vivo
Rattus norvegicus [15] = assay: Total drug excretion in bile duct-cannulated rat at 0.5 mg/kg, po administered via gavage measured during 0 to 48 hrs by liquid scintillation counting; format: ADME, organism-based; set-up: dose 0.5 mg/kg, dosed compound name [14C]Rivoglitazone, route oral; conditions: in vivo
[16] = Drug excretion in F344/DuCrlCrlj rat feces at 1 mg/kg, po administered via gavage measured during 0 to 48 hrs by liquid scintillation counting; format: ADME, organism-based; set-up: dose 1 mg/kg, dosed compound name [14C]Rivoglitazone, route oral; conditions: in vivo
[17] = Drug excretion in monkey urine at 1 mg/kg, po administered via gavage measured during 0 to 168 hrs by liquid scintillation counting; format: ADME, organism-based, Macaca mulatta; set-up: dose 1 mg/kg, dosed compound name [14C]Rivoglitazone, route oral; conditions: rhesus monkey, in vivo
Rattus norvegicus [18] = assay: Total drug excretion in bile duct-cannulated rat at 0.5 mg/kg, iv administered via tail vein measured during 0 to 48 hrs by liquid scintillation counting; format: ADME, organism-based; set-up: dose 0.5 mg/kg, dosed compound name [14C]Rivoglitazone, route intravenous; conditions: in vivo
Rattus norvegicus [19] = assay: Drug excretion in bile duct-cannulated rat cage wash at 0.5 mg/kg, iv administered via tail vein measured during 0 to 48 hrs by liquid scintillation counting; format: ADME, organism-based; set-up: dose 0.5 mg/kg, dosed compound name [14C]Rivoglitazone, route intravenous; conditions: in vivo
[20] = Drug excretion in F344/DuCrlCrlj rat urine at 1 mg/kg, po administered via gavage measured during 0 to 48 hrs by liquid scintillation counting; format: ADME, organism-based; set-up: dose 1 mg/kg, dosed compound name [14C]Rivoglitazone, route oral; conditions: in vivo
Rattus norvegicus [21] = assay: Total drug excretion in F344/DuCrlCrlj rat at 1 mg/kg, po administered via gavage measured during 0 to 168 hrs by liquid scintillation counting; format: ADME, organism-based; set-up: dose 1 mg/kg, dosed compound name [14C]Rivoglitazone, route oral; conditions: in vivo
[22] = Drug excretion in monkey urine at 1 mg/kg, iv administered via tail vein measured during 0 to 168 hrs by liquid scintillation counting; format: ADME, organism-based, Macaca mulatta; set-up: dose 1 mg/kg, dosed compound name [14C]Rivoglitazone, route intravenous; conditions: rhesus monkey, in vivo
Rattus norvegicus [23] = assay: Drug excretion in bile duct-cannulated rat cage wash at 0.5 mg/kg, po administered via gavage measured during 0 to 48 hrs by liquid scintillation counting; format: ADME, organism-based; set-up: dose 0.5 mg/kg, dosed compound name [14C]Rivoglitazone, route oral; conditions: in vivo
[24] = Drug excretion in monkey urine at 1 mg/kg, po administered via gavage measured during 0 to 48 hrs by liquid scintillation counting; format: ADME, organism-based, Macaca mulatta; set-up: dose 1 mg/kg, dosed compound name [14C]Rivoglitazone, route oral; conditions: rhesus monkey, in vivo
[25] = Drug excretion in monkey feces at 1 mg/kg, iv administered […] measured during 0 to 48 hrs by liquid scintillation counting; format: ADME, organism-based, Macaca mulatta; set-up: dose 1 mg/kg, dosed compound name [14C]Rivoglitazone, route intravenous; conditions: rhesus monkey, in vivo
[26] = Drug excretion in monkey feces at 1 mg/kg, iv administered […] measured during 0 to 168 hrs by liquid scintillation counting; format: ADME, organism-based, Macaca mulatta; set-up: dose 1 mg/kg, dosed compound name [14C]Rivoglitazone, route intravenous; conditions: rhesus monkey, in vivo
[27] = Drug excretion in bile duct-cannulated rat feces at 0.5 mg/kg, iv administered via tail vein measured during 0 to 48 hrs by liquid scintillation counting; format: ADME, organism-based; set-up: dose 0.5 mg/kg, dosed compound name [14C]Rivoglitazone, route intravenous; conditions: in vivo
Rhesus monkey [28] = assay: Total drug excretion in monkey at 1 mg/kg, po administered via gavage measured during 0 to 48 hrs by liquid scintillation counting; format: ADME, organism-based, Macaca mulatta; set-up: dose 1 mg/kg, dosed compound name [14C]Rivoglitazone, route oral; conditions: in vivo
[29] = Drug excretion in monkey urine at 1 mg/kg, iv administered via tail vein measured during 0 to 48 hrs by liquid scintillation counting; format: ADME, organism-based, Macaca mulatta; set-up: dose 1 mg/kg, dosed compound name [14C]Rivoglitazone, route intravenous; conditions: rhesus monkey, in vivo
[30] = Drug excretion in monkey feces at 1 mg/kg, po administered via gavage measured during 0 to 168 hrs by liquid scintillation counting; format: ADME, organism-based, Macaca mulatta; set-up: dose 1 mg/kg, dosed compound name [14C]Rivoglitazone, route oral; conditions: rhesus monkey, in vivo
Rattus norvegicus [31] = assay: Total drug excretion in F344/DuCrlCrlj rat at 1 mg/kg, iv administered via tail vein measured during 0 to 168 hrs by liquid scintillation counting; format: ADME, organism-based; set-up: dose 1 mg/kg, dosed compound name [14C]Rivoglitazone, route intravenous; conditions: in vivo
[32] = Drug excretion in bile duct-cannulated rat feces at 0.5 mg/kg, po administered via gavage measured during 0 to 48 hrs by liquid scintillation counting; format: ADME, organism-based; set-up: dose 0.5 mg/kg, dosed compound name [14C]Rivoglitazone, route oral; conditions: in vivo
[33] = Drug excretion in F344/DuCrlCrlj rat feces at 1 mg/kg, iv administered via tail vein measured during 0 to 168 hrs by liquid scintillation counting; format: ADME, organism-based; set-up: dose 1 mg/kg, dosed compound name [14C]Rivoglitazone, route intravenous; conditions: in vivo
[34] = Drug excretion in F344/DuCrlCrlj rat urine at 1 mg/kg, po administered via gavage measured during 0 to 168 hrs by liquid scintillation counting; format: ADME, organism-based; set-up: dose 1 mg/kg, dosed compound name [14C]Rivoglitazone, route oral; conditions: in vivo
Rhesus monkey [35] = assay: Total drug excretion in monkey at 1 mg/kg, po administered via gavage measured during 0 to 168 hrs by liquid scintillation counting; format: ADME, organism-based, Macaca mulatta; set-up: dose 1 mg/kg, dosed compound name [14C]Rivoglitazone, route oral; conditions: in vivo
Rhesus monkey [36] = assay: Drug excretion in monkey cage wash at 1 mg/kg, po administered via gavage measured during 0 to 168 hrs by liquid scintillation counting; format: ADME, organism-based, Macaca mulatta; set-up: dose 1 mg/kg, dosed compound name [14C]Rivoglitazone, route oral; conditions: in vivo
Rattus norvegicus [37] = assay: Total drug excretion in F344/DuCrlCrlj rat at 1 mg/kg, po administered via gavage measured during 0 to 48 hrs by liquid scintillation counting; format: ADME, organism-based; set-up: dose 1 mg/kg, dosed compound name [14C]Rivoglitazone, route oral; conditions: in vivo
[38] = Drug excretion in bile duct-cannulated rat urine at 0.5 mg/kg, po administered via gavage measured during 0 to 48 hrs by liquid scintillation counting; format: ADME, organism-based; set-up: dose 0.5 mg/kg, dosed compound name [14C]Rivoglitazone, route oral; conditions: in vivo
[39] = Drug excretion in bile duct-cannulated rat bile at 0.5 mg/kg, po administered via gavage measured during 0 to 48 hrs by liquid scintillation counting; format: ADME, organism-based; set-up: dose 0.5 mg/kg, dosed compound name [14C]Rivoglitazone, route oral; conditions: in vivo
[40] = Drug excretion in F344/DuCrlCrlj rat feces at 1 mg/kg, po administered via gavage measured during 0 to 168 hrs by liquid scintillation counting; format: ADME, organism-based; set-up: dose 1 mg/kg, dosed compound name [14C]Rivoglitazone, route oral; conditions: in vivo
Rattus norvegicus [41] = assay: Total drug excretion in F344/DuCrlCrlj rat at 1 mg/kg, iv administered via tail vein measured during 0 to 48 hrs by liquid scintillation counting; format: ADME, organism-based; set-up: dose 1 mg/kg, dosed compound name [14C]Rivoglitazone, route intravenous; conditions: in vivo
Rhesus monkey [42] = assay: Total drug excretion in monkey at 1 mg/kg, iv administered via tail vein measured during 0 to 168 hrs by liquid scintillation counting; format: ADME, organism-based, Macaca mulatta; set-up: dose 1 mg/kg, dosed compound name [14C]Rivoglitazone, route intravenous; conditions: in vivo
[43] = Drug excretion in F344/DuCrlCrlj rat urine at 1 mg/kg, iv administered via tail vein measured during 0 to 168 hrs by liquid scintillation counting; format: ADME, organism-based; set-up: dose 1 mg/kg, dosed compound name [14C]Rivoglitazone, route intravenous; conditions: in vivo
[44] = Drug excretion in F344/DuCrlCrlj rat urine at 1 mg/kg, iv administered via tail vein measured during 0 to 48 hrs by liquid scintillation counting; format: ADME, organism-based; set-up: dose 1 mg/kg, dosed compound name [14C]Rivoglitazone, route intravenous; conditions: in vivo
[45] = Drug excretion in monkey feces at 1 mg/kg, po administered via gavage measured during 0 to 48 hrs by liquid scintillation counting; format: ADME, organism-based, Macaca mulatta; set-up: dose 1 mg/kg, dosed compound name [14C]Rivoglitazone, route oral; conditions: rhesus monkey, in vivo

Cn1c(COc2ccc(CC3SC(=O)NC3=O)cc2)nc2ccc(OS(=O)(=O)O)cc21 (stereo not given)
Compound recovery [1]: 23%
Compound recovery [2]: 10%
AUCmet/AUCp (Rhesus monkey [3]): 0.64%
AUCmet/AUCp (Rattus norvegicus [4]): 23.4%
Compound recovery [5]: 10%
Compound recovery [6]: 33%
Compound recovery (Rattus norvegicus [7]): metabolite_detected
Compound recovery [8]: metabolite_not_detected
Retention_time [9]: 19 min

COc1ccc2nc(COc3ccc(C[14CH]4SC(=O)NC4=O)cc3)n(C)c2c1 (racemic)
Radiolabel recovery [10]: 18.4%
Radiolabel recovery [11]: 74.2%
Radiolabel recovery [12]: 55.4%
Radiolabel recovery (Rhesus monkey [13]): 49.7%
Radiolabel recovery (Rhesus monkey [14]): 0.1%
Radiolabel recovery (Rattus norvegicus [15]): 81%
Radiolabel recovery [16]: 81.1%
Radiolabel recovery [17]: 36.7%
Radiolabel recovery (Rattus norvegicus [18]): 86.5%
Radiolabel recovery (Rattus norvegicus [19]): 5.7%
Radiolabel recovery [20]: 18%
Radiolabel recovery (Rattus norvegicus [21]): 100%
Radiolabel recovery [22]: 47.4%
Radiolabel recovery (Rattus norvegicus [23]): 4.8%
Radiolabel recovery [24]: 29.7%
Radiolabel recovery [25]: 10.3%
Radiolabel recovery [26]: 38.4%
Radiolabel recovery [27]: 7%
Radiolabel recovery (Rhesus monkey [28]): 54.3%
Radiolabel recovery [29]: 39.4%
Radiolabel recovery [30]: 53%
Radiolabel recovery (Rattus norvegicus [31]): 101%
Radiolabel recovery [32]: 19.1%
Radiolabel recovery [33]: 75.4%
Radiolabel recovery [34]: 18.3%
Radiolabel recovery (Rhesus monkey [35]): 90%
Radiolabel recovery (Rhesus monkey [36]): 0.2%
Radiolabel recovery (Rattus norvegicus [37]): 99.1%
Radiolabel recovery [38]: 19.9%
Radiolabel recovery [39]: 37.2%
Radiolabel recovery [40]: 82%
Radiolabel recovery (Rattus norvegicus [41]): 99.7%
Radiolabel recovery (Rhesus monkey [42]): 86%
Radiolabel recovery [43]: 25.6%
Radiolabel recovery [44]: 25.5%
Radiolabel recovery [45]: 24.6%

Reference: ChEMBL document CHEMBL3525983, “Pharmacokinetics, metabolism, and disposition of rivoglitazone, a novel peroxisome proliferator-activated receptor γ agonist, in rats and monkeys” (Drug Metab Dispos, 2011)
